Experiment [1] deals with orexin-1 (Homo sapiens (Human), UniProt O43613). In words: Intracellular calcium measurement (FLIPR), CHO cells expressing human orexin-1 receptor, 3 nM orexin-A. The experiment is classed as cell-based. The following applies: read-out: IC50 OX1. The method in brief: (§1)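 CHO transfectants were dye-loaded (fluo-4 AM, probenecid) and exposed to antagonist for 120 min ahead of agonist.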
(Calcium assays in cells follow changes in intracellular calcium, usually with a dye or a luminescent sensor.)

Experiment [2] addresses human orexin-2 receptor (Homo sapiens (Human), UniProt O43614). In words: Intracellular calcium measurement (FLIPR), CHO cells expressing human orexin-2 receptor, 3 nM orexin-A. The experiment is classed as cell-based. The note with it: read-out: IC50 OX2. The method in brief: as §1
Where [3] appears, read: CHO cells expressing human orexin-1 receptor, FLIPR, 3 nM orexin-A, geometric mean if determined several times.
Setting [4] is: CHO cells expressing human orexin-2 receptor, FLIPR, 3 nM orexin-A, geometric mean if determined several times.

Like-named read-outs stand apart in the source and are kept apart here.

By IC50 is commonly meant the concentration that inhibits the measured activity by half.

orexin-1, sequence (O43613 whole entry): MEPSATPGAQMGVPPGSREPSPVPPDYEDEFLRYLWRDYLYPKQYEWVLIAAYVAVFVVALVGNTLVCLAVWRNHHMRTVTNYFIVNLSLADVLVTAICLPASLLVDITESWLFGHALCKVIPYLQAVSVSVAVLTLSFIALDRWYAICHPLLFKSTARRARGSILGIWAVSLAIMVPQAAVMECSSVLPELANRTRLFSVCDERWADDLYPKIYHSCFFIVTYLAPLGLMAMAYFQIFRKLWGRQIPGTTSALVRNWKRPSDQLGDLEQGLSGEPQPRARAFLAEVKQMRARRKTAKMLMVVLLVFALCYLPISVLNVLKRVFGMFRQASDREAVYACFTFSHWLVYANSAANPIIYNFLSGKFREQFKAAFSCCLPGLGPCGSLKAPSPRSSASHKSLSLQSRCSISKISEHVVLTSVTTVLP
human orexin-2 receptor, sequence (O43614 whole entry): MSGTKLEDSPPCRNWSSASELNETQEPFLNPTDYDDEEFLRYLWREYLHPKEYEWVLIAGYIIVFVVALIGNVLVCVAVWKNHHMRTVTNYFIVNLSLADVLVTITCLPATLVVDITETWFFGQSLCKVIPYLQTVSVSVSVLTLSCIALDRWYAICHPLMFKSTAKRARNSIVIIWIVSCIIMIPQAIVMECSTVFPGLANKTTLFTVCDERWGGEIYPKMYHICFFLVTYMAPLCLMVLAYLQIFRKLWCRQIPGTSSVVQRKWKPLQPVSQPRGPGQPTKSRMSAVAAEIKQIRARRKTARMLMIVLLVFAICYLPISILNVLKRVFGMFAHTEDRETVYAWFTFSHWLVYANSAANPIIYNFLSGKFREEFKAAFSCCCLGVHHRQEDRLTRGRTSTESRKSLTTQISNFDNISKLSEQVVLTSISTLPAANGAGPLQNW

On to `COc1c(F)cccc1-c1nnc([C@@H]2CCCN2C(=O)c2cc(C)c(C)cc2-n2nccn2)[nH]1` [compound 474, (4,5-Dimethyl-2-[1,2,3]triazol-2-yl-phenyl)-{(S)-2-[5-(3-fluoro-2-methoxy-phenyl)-4H-[1,2,4]triazol-3-yl]-pyrrolidin-1-yl}-methanone], for which the half-inhibitory concentration (IC50) came to 16 nM in experiment [1] (setting [3]) and 8 nM in experiment [2] (setting [4]).
As to `COc1c(F)cccc1-c1nnc([C@@H]2CCCN2C(=O)c2cc(Cl)c(C)cc2-n2nccn2)[nH]1` [compound 475], the IC50 in experiment [1] turned out to be 11 nM; in experiment [2] (setting [4]) it was 2 nM.
As to `COc1c(F)cccc1-c1nnc([C@@H]2CCCN2C(=O)c2ccc(Cl)cc2-n2nccn2)[nH]1` [compound 476], the figures for the half-inhibitory concentration (IC50) in experiment [1] (setting [3]) and in experiment [2] (setting [4]) were 27 nM and 3 nM, respectively.
The matching figures for `COc1c(F)cccc1-c1nnc([C@@H]2CCCN2C(=O)c2ccc(C)cc2-n2nccn2)[nH]1` [compound 477, {(S)-2-[5-(3-Fluoro-2-methoxy-phenyl)-4H-[1,2,4]triazol-3-yl]-pyrrolidin-1-yl}-(4-methyl-2-[1,2,3]triazol-2-yl-phenyl)-methanone]: 55 nM and 15 nM.
The matching figures for `CCOc1ncccc1-c1nnc([C@@H]2CCCN2C(=O)c2cc(OC)c(Cl)cc2-n2nccn2)[nH]1` [compound 478]: 27 nM and 11 nM.
The matching figures for `CCOc1ncccc1-c1nnc([C@@H]2CCCN2C(=O)c2cc(OC)c(C)cc2-n2nccn2)[nH]1` [compound 479, {(S)-2-[5-(2-Ethoxy-pyridin-3-yl)-4H-[1,2,4]triazol-3-yl]-pyrrolidin-1-yl}-(5-methoxy-4-methyl-2-[1,2,3]triazol-2-yl-phenyl)-methanone]: 21 nM and 17 nM.
As to `CCOc1ncccc1-c1nnc([C@@H]2CCCN2C(=O)c2cc(C)c(C)cc2-n2nccn2)[nH]1` [compound 480, (4,5-Dimethyl-2-[1,2,3]triazol-2-yl-phenyl)-{(S)-2-[5-(2-ethoxy-pyridin-3-yl)-4H-[1,2,4]triazol-3-yl]-pyrrolidin-1-yl}-methanone], the IC50 was determined as 8 nM in experiment [1] (setting [3]) and 9 nM in experiment [2] (setting [4]).
Turning to `CCOc1ncccc1-c1nnc([C@@H]2CCCN2C(=O)c2ccc(Cl)cc2-n2nccn2)[nH]1` [compound 481], the figures for the IC50 in experiment [1] (setting [3]) and in experiment [2] (setting [4]) were 26 nM and 21 nM, respectively.
On to `CCOc1ncccc1-c1nnc([C@@H]2CCCN2C(=O)c2ccc(C)cc2-n2nccn2)[nH]1` [compound 482, {(S)-2-[5-(2-Ethoxy-pyridin-3-yl)-4H-[1,2,4]triazol-3-yl]-pyrrolidin-1-yl}-(4-methyl-2-[1,2,3]triazol-2-yl-phenyl)-methanone], for which the IC50 is 68 nM in experiment [1] (setting [3]) and 94 nM in experiment [2] (setting [4]).
The matching figures for `O=C(c1ncsc1-c1ccccc1)N1CCC[C@H]1c1nnc(-c2ccccc2OC(F)(F)F)[nH]1` [compound 483, (5-Phenyl-thiazol-4-yl)-{(S)-2-[5-(2-trifluoromethoxy-phenyl)-4H-[1,2,4]triazol-3-yl]-pyrrolidin-1-yl}-methanone]: 1620 nM and 1790 nM.
In the same order, the values of `O=C(c1ncoc1-c1ccccc1)N1CCC[C@H]1c1nnc(-c2ccccc2OC(F)(F)F)[nH]1` [compound 484, (5-Phenyl-oxazol-4-yl)-{(S)-2-[5-(2-trifluoromethoxy-phenyl)-4H-[1,2,4]triazol-3-yl]-pyrrolidin-1-yl}-methanone] are 5020 nM and 3000 nM.
As for `Cc1cccc(-c2scnc2C(=O)N2CCC[C@H]2c2nnc(-c3ccccc3OC(F)(F)F)[nH]2)c1` [compound 485, (5-m-Tolyl-thiazol-4-yl)-{(S)-2-[5-(2-trifluoromethoxy-phenyl)-4H-[1,2,4]triazol-3-yl]-pyrrolidin-1-yl}-methanone], the IC50 in experiment [1] (setting [3]) came out at 1300 nM; in experiment [2] (setting [4]), 1230 nM.
As to `Cc1cccc(-c2ocnc2C(=O)N2CCC[C@H]2c2nnc(-c3ccccc3OC(F)(F)F)[nH]2)c1` [compound 486, (5-m-Tolyl-oxazol-4-yl)-{(S)-2-[5-(2-trifluoromethoxy-phenyl)-4H-[1,2,4]triazol-3-yl]-pyrrolidin-1-yl}-methanone], the IC50 in experiment [1] (setting [3]) was 2360 nM; in experiment [2] (setting [4]) it was 3130 nM.
For `CCOc1ncccc1-c1nnc([C@@H]2CCCN2C(=O)c2cc(Cl)c(C)cc2-n2nccn2)[nH]1` [compound 487, (5-Chloro-4-methyl-2-[1,2,3]triazol-2-yl-phenyl)-{(S)-2-[5-(2-ethoxy-pyridin-3-yl)-4H-[1,2,4]triazol-3-yl]-pyrrolidin-1-yl}-methanone], the IC50 is 23 nM in experiment [1] (setting [3]) and 8 nM in experiment [2] (setting [4]).
Regarding `COc1c(Cl)cccc1-c1nnc([C@@H]2CCCN2C(=O)c2cc(C)ccc2-n2nccn2)[nH]1` [compound 488, {(S)-2-[5-(3-Chloro-2-methoxy-phenyl)-4H-[1,2,4]triazol-3-yl]-pyrrolidin-1-yl}-(5-methyl-2-[1,2,3]triazol-2-yl-phenyl)-methanone], the IC50 in experiment [1] (setting [3]) came out at 136 nM; in experiment [2] (setting [4]), 14 nM.
As to `COc1c(Cl)cccc1-c1nnc([C@@H]2CCCN2C(=O)c2ccc(C)cc2-n2nccn2)[nH]1` [compound 489, {(S)-2-[5-(3-Chloro-2-methoxy-phenyl)-4H-[1,2,4]triazol-3-yl]-pyrrolidin-1-yl}-(4-methyl-2-[1,2,3]triazol-2-yl-phenyl)-methanone], the results for the IC50 in experiment [1] (setting [3]) and in experiment [2] (setting [4]) were 62 nM and 10 nM, respectively.
Regarding `COc1cc(C(=O)N2CCC[C@H]2c2nnc(-c3cccc(Cl)c3OC)[nH]2)c(-n2nccn2)cc1C` [compound 490, {(S)-2-[5-(3-Chloro-2-methoxy-phenyl)-4H-[1,2,4]triazol-3-yl]-pyrrolidin-1-yl}-(5-methoxy-4-methyl-2-[1,2,3]triazol-2-yl-phenyl)-methanone], the IC50 was found to be 120 nM in experiment [1] (setting [3]) and 2 nM in experiment [2] (setting [4]).
In the same order, the values of `COc1cc(C(=O)N2CCC[C@H]2c2nnc(-c3cccc(Cl)c3OC)[nH]2)c(-n2nccn2)cc1Cl` [compound 491, {(S)-2-[5-(3-Chloro-2-methoxy-phenyl)-4H-[1,2,4]triazol-3-yl]-pyrrolidin-1-yl}-(4-chloro-5-methoxy-2-[1,2,3]triazol-2-yl-phenyl)-methanone] are 33 nM and 1 nM.
In the same order, the values of `COc1c(Cl)cccc1-c1nnc([C@@H]2CCCN2C(=O)c2cc(C)c(C)cc2-n2nccn2)[nH]1` [compound 492, {(S)-2-[5-(3-Chloro-2-methoxy-phenyl)-4H-[1,2,4]triazol-3-yl]-pyrrolidin-1-yl}-(4,5-dimethyl-2-[1,2,3]triazol-2-yl-phenyl)-methanone] are 27 nM and 3 nM.
`Cc1ccc(-n2nccn2)c(C(=O)N2CCC[C@H]2c2nnc(-c3cccc(Cl)c3C)[nH]2)c1` [compound 493]: the IC50 in experiment [1] (setting [3]) was found to be 1140 nM; in experiment [2] it was 29 nM.
With `Cc1ccc(-n2nccn2)c(C(=O)N2CCC[C@H]2c2nnc(-c3cccc(F)c3C)[nH]2)c1` [compound 494, {(S)-2-[5-(3-Fluoro-2-methyl-phenyl)-4H-[1,2,4]triazol-3-yl]-pyrrolidin-1-yl}-(5-methyl-2-[1,2,3]triazol-2-yl-phenyl)-methanone], the IC50 in experiment [1] (setting [3]) came out at 847 nM; in experiment [2] (setting [4]), 27 nM.

Source of the values: patent US9493446B2, “Orexin receptor antagonists which are [ortho bi-(hetero-)aryl]-[2-(meta bi-(hetero-)aryl)-pyrrolidin-1-yl]-methanone derivatives” (Actelion Pharmaceuticals Ltd, priority 2012, dated 2016).
